Assay results as given in PubChem BioAssay (NCI).
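96-well plates; 48 h exposure; 5 concentrations. Endpoints by linear interpolation between flanking doses. Not reached: highest tested concentration assigned. At the GI50, growth is halved. Definition used: TGI = concentration required for complete inhibition of growth.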

How the values were obtained:
Assay in all cases: NCI tumour cell line growth inhibition, 48 h
[1] = test system: IGROV1 ovarian
[2] = test system: RXF 393 renal
[3] = test system: SR leukemia
[4] = test system: A498 renal
[5] = test system: MDA-MB-231 breast
[6] = test system: ACHN renal
[7] = test system: U251 CNS
[8] = test system: SF-539 CNS
[9] = test system: PC-3 prostate
[10] = test system: NCI-H522 lung
[11] = test system: CAKI-1 renal
[12] = test system: MALME-3M melanoma
[13] = test system: MOLT-4 leukemia
[14] = test system: MDA-MB-435
[15] = test system: KM12 colon
[16] = test system: NCI/ADR-RES ovarian
[17] = test system: UO-31 renal
[18] = test system: COLO 205 colon
[19] = test system: HT29 colon
[20] = test system: A549 NSCLC
[21] = test system: LOX IMVI melanoma
[22] = test system: RPMI-8226 leukemia
[23] = test system: K-562 leukemia
[24] = test system: OVCAR-8 ovarian
[25] = test system: SN12C renal
[26] = test system: HCT-15 colon
[27] = test system: SK-MEL-28 melanoma
[28] = test system: SF-295 CNS
[29] = test system: OVCAR-4 ovarian
[30] = test system: T-47D breast
[31] = test system: BT-549 breast
[32] = test system: SK-MEL-2 melanoma
[33] = test system: OVCAR-5 ovarian
[34] = test system: HCT-116 colon
[35] = test system: M14 melanoma
[36] = test system: SF-268 CNS
[37] = test system: DU-145 prostate
[38] = test system: NCI-H226 lung
[39] = test system: UACC-257 melanoma
[40] = test system: OVCAR-3 ovarian
[41] = test system: SNB-19 CNS
[42] = test system: EKVX NSCLC
[43] = test system: HOP-62 NSCLC
[44] = test system: NCI-H23 lung
[45] = test system: HOP-92 NSCLC
[46] = test system: 786-0 renal
[47] = test system: HCC-2998 colon
[48] = test system: HS 578T breast
[49] = test system: SK-MEL-5 melanoma
[50] = test system: NCI-H460 lung
[51] = test system: TK-10 renal
[52] = test system: SNB-75 CNS
[53] = test system: SW-620 colon
[54] = test system: MCF7 breast
[55] = test system: UACC-62 melanoma
[56] = test system: HL-60(TB) leukemia
[57] = test system: SK-OV-3 ovarian
[58] = test system: CCRF-CEM leukemia

COc1ccc(-c2cc(-c3ccc(O)cc3)nc3nc(=S)[nH]c(N)c23)cc1
GI50 [1]: 18.6 µM | TGI [1]: 73.8 µM | GI50 [2]: 28 µM | TGI [2]: 92.7 µM | GI50 [3]: 6.94 µM | TGI [3]: > 100 µM | GI50 [4]: 20.5 µM | TGI [4]: 43.4 µM | GI50 [5]: 16.1 µM | TGI [5]: 57.8 µM | GI50 [6]: 19.1 µM | TGI [6]: 65.5 µM | GI50 [7]: 15.3 µM | TGI [7]: 61.1 µM | GI50 [8]: 2.46 µM | TGI [8]: 17.1 µM | GI50 [9]: 15.8 µM | TGI [9]: 43.7 µM | GI50 [10]: 8.5 µM | TGI [10]: 27.8 µM | GI50 [11]: 27.1 µM | TGI [11]: 88.7 µM | GI50 [12]: 17.6 µM | TGI [12]: 38.7 µM | GI50 [13]: 7.01 µM | TGI [13]: > 100 µM | GI50 [14]: 17.3 µM | TGI [14]: 41.4 µM | GI50 [15]: 16.9 µM | TGI [15]: 41.3 µM | GI50 [16]: 26.1 µM | TGI [16]: 66.3 µM | GI50 [17]: 13.2 µM | TGI [17]: 44.9 µM | GI50 [18]: 17 µM | TGI [18]: 50.1 µM | GI50 [19]: 30.1 µM | TGI [19]: > 100 µM | GI50 [20]: 17.4 µM | TGI [20]: 54.6 µM | GI50 [21]: 12 µM | TGI [21]: 30.3 µM | GI50 [22]: 10.6 µM | TGI [22]: 25.7 µM | GI50 [23]: 16.9 µM | TGI [23]: > 100 µM | GI50 [24]: 16.1 µM | TGI [24]: 43.1 µM | GI50 [25]: 18.5 µM | TGI [25]: 45.1 µM | GI50 [26]: 19.6 µM | TGI [26]: 58 µM | GI50 [27]: 66.8 µM | TGI [27]: > 100 µM | GI50 [28]: 20 µM | TGI [28]: 61.6 µM | GI50 [29]: 25.3 µM | TGI [29]: > 100 µM | GI50 [30]: 14.3 µM | TGI [30]: 80.1 µM | GI50 [31]: 12.4 µM | TGI [31]: 32.7 µM | GI50 [32]: 18.4 µM | TGI [32]: 41.2 µM | GI50 [33]: 32 µM | TGI [33]: 74.3 µM | GI50 [34]: 15.4 µM | TGI [34]: 31.3 µM | GI50 [35]: 19.7 µM | TGI [35]: 35.4 µM | GI50 [36]: 23.4 µM | TGI [36]: 79.2 µM | GI50 [37]: 12.1 µM | TGI [37]: 35.3 µM | GI50 [38]: 15.7 µM | TGI [38]: 36.9 µM | GI50 [39]: 17.2 µM | TGI [39]: 36.3 µM | GI50 [40]: 16.4 µM | TGI [40]: 45 µM | GI50 [41]: 26.7 µM | TGI [41]: > 100 µM | GI50 [42]: 13.5 µM | TGI [42]: 60.7 µM | GI50 [43]: 20.7 µM | TGI [43]: 47.5 µM | GI50 [44]: 25 µM | TGI [44]: 50.1 µM | GI50 [45]: 5.15 µM | TGI [45]: 36.4 µM | GI50 [46]: 22.8 µM | TGI [46]: 56.6 µM | GI50 [47]: 16.2 µM | TGI [47]: 31.9 µM | GI50 [48]: 20.6 µM | TGI [48]: 48.4 µM | GI50 [49]: 16.1 µM | TGI [49]: 31 µM | GI50 [50]: 15.9 µM | TGI [50]: 36.9 µM | GI50 [51]: 32.2 µM | TGI [51]: 92.9 µM | GI50 [52]: 26.2 µM | TGI [52]: > 100 µM | GI50 [53]: 16 µM | TGI [53]: 33.3 µM | GI50 [54]: 12 µM | TGI [54]: 35.6 µM | GI50 [55]: 14.7 µM | TGI [55]: 30.3 µM

CCc1ccc(CCC(=O)Nc2ncc(Cc3cc(Cl)ccc3Cl)s2)o1
GI50 [1]: 1.69 µM | TGI [1]: > 50 µM | GI50 [2]: 1.19 µM | TGI [2]: 6.87 µM | GI50 [3]: 0.22 µM | TGI [3]: 7.92 µM | GI50 [4]: 1.19 µM | TGI [4]: 3.46 µM | GI50 [5]: 2.16 µM | TGI [5]: 15.6 µM | GI50 [6]: 1.69 µM | TGI [6]: 11.6 µM | GI50 [7]: 1.61 µM | TGI [7]: 11.7 µM | GI50 [8]: 1.26 µM | TGI [8]: 4.1 µM | GI50 [9]: 1.49 µM | TGI [9]: > 50 µM | GI50 [10]: 1.62 µM | TGI [10]: > 50 µM | GI50 [11]: 0.774 µM | TGI [11]: 12.1 µM | GI50 [12]: 1.38 µM | TGI [12]: > 50 µM | GI50 [13]: 1.3 µM | TGI [13]: > 50 µM | GI50 [14]: 0.15 µM | TGI [14]: 0.486 µM | GI50 [15]: 1.12 µM | TGI [15]: > 50 µM | GI50 [16]: 1.6 µM | TGI [16]: > 50 µM | GI50 [17]: 1.86 µM | TGI [17]: 22.5 µM | GI50 [18]: 1.26 µM | TGI [18]: 11 µM | GI50 [19]: 1.17 µM | TGI [19]: > 50 µM | GI50 [20]: 2.14 µM | TGI [20]: > 50 µM | GI50 [21]: 2.04 µM | TGI [21]: > 50 µM | GI50 [22]: 1.21 µM | TGI [22]: 6.92 µM | GI50 [23]: 0.242 µM | TGI [23]: > 50 µM | GI50 [24]: 2.25 µM | TGI [24]: > 50 µM | GI50 [25]: 1.93 µM | TGI [25]: 36.9 µM | GI50 [26]: 0.508 µM | TGI [26]: > 50 µM | GI50 [27]: 2.75 µM | TGI [27]: > 50 µM | GI50 [28]: 1.25 µM | TGI [28]: 7.17 µM | GI50 [29]: 1.78 µM | TGI [29]: 12.6 µM | GI50 [30]: 1.86 µM | TGI [30]: > 50 µM | GI50 [31]: > 50 µM | TGI [31]: > 50 µM | GI50 [32]: 2.66 µM | TGI [32]: > 50 µM | GI50 [33]: 2.21 µM | TGI [33]: > 50 µM | GI50 [34]: 0.988 µM | TGI [34]: 9.1 µM | GI50 [35]: 0.721 µM | TGI [35]: > 50 µM | GI50 [36]: 3.6 µM | TGI [36]: > 50 µM | GI50 [37]: 1.74 µM | TGI [37]: > 50 µM | GI50 [38]: 3.61 µM | TGI [38]: > 50 µM | GI50 [40]: 1.33 µM | TGI [40]: 4.76 µM | GI50 [41]: 1.87 µM | TGI [41]: 12.4 µM | GI50 [56]: 0.887 µM | TGI [56]: 2.11 µM | GI50 [42]: 2.32 µM | TGI [42]: > 50 µM | GI50 [43]: 2.01 µM | TGI [43]: 16.9 µM | GI50 [44]: 2.49 µM | TGI [44]: > 50 µM | GI50 [45]: 2.08 µM | TGI [45]: > 50 µM | GI50 [46]: 2.7 µM | TGI [46]: > 50 µM | GI50 [47]: 2.99 µM | TGI [47]: > 50 µM | GI50 [57]: 2.04 µM | TGI [57]: > 50 µM | GI50 [48]: 1.29 µM | TGI [48]: 5.96 µM | GI50 [49]: 1.21 µM | TGI [49]: > 50 µM | GI50 [58]: 0.843 µM | TGI [58]: > 50 µM | GI50 [50]: 1.88 µM | TGI [50]: > 50 µM | GI50 [51]: 3.47 µM | TGI [51]: > 50 µM | GI50 [52]: 0.412 µM | TGI [52]: 2.4 µM | GI50 [53]: 0.935 µM | TGI [53]: > 50 µM | GI50 [54]: 0.399 µM | TGI [54]: > 50 µM | GI50 [55]: 1.49 µM | TGI [55]: > 50 µM
